The record followed here is patent US20210032257A1, “(E)-1-(4-(DIMETHYLAMINO)BUT-2-ENOYL)PYRROLIDIN-3-YL 4-((3-ISOPROPYL-5-METHYLPYRAZOLO[1,5-A]PYRIMIDIN-7-YL)AMINO)PIPERIDINE-1-CARBOXYLATE FOR INHIBITING CDK7” (Eli Lilly and Company, priority 2017, published 2021).

The subject of assay [1] is phospho-carboxyl terminal domain (Ser2) in HCT116 cells. Briefly: p-CTD (S2) cell based Acumen assay. The note with it: Homo sapiens, HCT-116, 4 hours, read-out: relative IC50 for phosphoCTD (S2). As for the experimental part:
(§1) HCT116 cells (ATCC CCL-247) are cultured in McCoy's 5A Medium Modified media supplemented with 10% FBS, 1% NaPyr and 1% Pen/Strep and plated (prior to becoming 70% confluent) in 96-well flat-bottom plates at a density of 5,000 cells per well in 100 μL volume. The cells are then incubated overnight in a cell culture incubator (5% CO2, 95% Relative Humidity (RH) and 37° C.) and allowed to attach to the plate. The following morning the cells are dosed with compounds. Compound inhibitors are first solubilized at 60 μM in culture medium containing 0.6% DMSO. Subsequently compound serial dilutions (1:3) are prepared over a 6 μM to 0.00 μM range. […]
The following day cells are washed three times with PBS (100 μL/well) and incubated with 50 μL/well of secondary antibody (1:2000 dilution, Goat anti-rabbit IgM ALEXA FLUOR™ 488) in PBS for 1 hour at RT. […] Plates are analyzed on Acumen on FL2 (mean intensity), and FL3 (total intensity). Fluorescence plates are scanned with ACUMEN EXPLORER™ [Laser-scanning fluorescence microplate cytometer manufactured by TTP LABTECH LTD] to measure anti-phospho-carboxyl terminal domain at Serine 2 (pCTD). […]
The IC50 is determined by curve fitting to a four parameter logistic for each output using GENE DATA™.

Assay [2] deals with phospho-carboxyl terminal domain (Ser5) in HCT116 cells. Nature of the assay: p-CTD (S5) cell based Acumen assay. As to conditions: Homo sapiens, HCT-116, 4 hours, read-out: Relative IC50 for pCTD Ser5. As for the experimental part:
as §1, with “are” for “are then”, “following morning,” for “following morning”, “are” for “are first”, “a 60” for “a 6”, “to 0.003” for “to 0.00”
The following day cells are washed three times with PBS (100 μL/well) and incubated with 50 μL/well of secondary antibody (1:2000 dilution, Goat anti-rabbit IgM ALEXA FLUOR™ 488) in PBS for 1 hour at room temperature. […] Plates are analyzed on Acumen on FL2 (mean intensity), and FL3 (total intensity). Fluorescence plates are scanned with ACUMEN EXPLORER™ [Laser-scanning fluorescence microplate cytometer manufactured by TTP LABTECH LTD] to measure anti-phospho-carboxyl terminal domain at Serine 5 (pCTD). […] The IC50 is determined by curve fitting to a four parameter logistic for each output using GENE DATA™.

One may read the IC50 as the concentration that gives 50% inhibition. As for `Cc1cc(NC2CCN(C(=O)O[C@H]3CCN(C(=O)/C=C/CN(C)C)C3)CC2)n2ncc(C(C)C)c2n1` [Example 1, [(3S)-1-[(E)-4-(dimethylamino)but-2-enoyl]pyrrolidin-3-yl] 4-[(3-isopropyl-5-methyl-pyrazolo[1,5-a]pyrimidin-7-yl)amino]piperidine-1-carboxylate], the results for the IC50 in assay [1] and in assay [2] were above 2000 nM and 140 nM, respectively.
